Biological target: hQC (Homo sapiens, UniProt Q16769)
Assay: Fluorometric (fluorescent) assay of hQC inhibition, IC50
Type: biochemical
Settings: read-out: IC50
Experimental: All compounds were immediately tested regarding their activity as hQC inhibitors.
The purity of the compounds was determined by HPLC-MS. The IC50 value against hQC was measured using the fluorescent assay.
All measurements were performed with a BioAssay Reader HTS-7000Plus for microplates (Perkin Elmer) at 30° C. QC activity was evaluated fluorometrically using H-Gln-βNA. The samples consisted of 0.2 mM fluorogenic substrate, 0.25 U pyroglutamyl aminopeptidase (Unizyme, Horsholm, Denmark) in 0.2 M Tris/HCl, pH 8.0 containing 20 mM EDTA and an appropriately diluted aliquot of QC in a final volume of 250 μl. Excitation/emission wavelengths were 320/410 nm. The assay reactions were initiated by addition of glutaminyl cyclase. QC activity was determined from a standard curve of β-naphthylamine under assay conditions. One unit is defined as the amount of QC catalyzing the formation of 1 μmol pGlu-βNA from H-Gln-βNA per minute under the described conditions.
In a second fluorometric assay, QC was activity determined using H-Gln-AMC as substrate. Reactions were carried out at 30° C. utilizing the NOVOStar reader for microplates (BMG labtechnologies). The samples consisted of varying concentrations of the fluorogenic substrate, 0.1 U pyroglutamyl aminopeptidase (Qiagen) in 0.05 M Tris/HCl, pH 8.0 containing 5 mM EDTA and an appropriately diluted aliquot of QC in a final volume of 250 μl. Excitation/emission wavelengths were 380/460 nm. The assay reactions were initiated by addition of glutaminyl cyclase. QC activity was determined from a standard curve of 7-amino-4-methylcoumarin under assay conditions. The kinetic data were evaluated using GraFit sofware.
For inhibitor testing, the sample composition was the same as described above, except of the putative inhibitory compound added. For a rapid test of QC-inhibition, samples contained 4 mM of the respective inhibitor and a substrate concentration at 1 KM. For detailed investigations of the inhibition and determination of Ki-values, influence of the inhibitor on the auxiliary enzymes was investigated first. […] The inhibitory constant was evaluated by fitting the set of progress curves to the general equation for competitive inhibition using GraFit software.

Sequence of hQC (Q16769 29-361): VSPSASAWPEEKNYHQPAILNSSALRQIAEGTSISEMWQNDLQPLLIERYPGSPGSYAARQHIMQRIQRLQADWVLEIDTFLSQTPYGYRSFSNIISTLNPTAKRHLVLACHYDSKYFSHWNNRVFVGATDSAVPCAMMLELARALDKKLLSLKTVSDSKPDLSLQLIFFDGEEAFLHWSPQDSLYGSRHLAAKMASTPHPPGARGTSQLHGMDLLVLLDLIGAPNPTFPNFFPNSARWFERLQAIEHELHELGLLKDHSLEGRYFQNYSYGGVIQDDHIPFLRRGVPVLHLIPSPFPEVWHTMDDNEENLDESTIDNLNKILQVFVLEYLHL

Row | SMILES | IC50 [µM]
1 | C=CCn1nnnc1C(NCCCn1ccnc1)c1ccc2ccccc2n1 (stereo not drawn) [compound 47, [(1-Allyl-1H-tetrazol-5-yl)-quinolin-2-yl-methyl]-(3-imidazol-1-yl-propyl)-amine] | 3.1
2 | C=CCn1nnnc1C(NCCCn1ccnc1)c1cc(C)c(C)cc1C (stereo not drawn) [compound 48, [(1-Allyl-1H-tetrazol-5-yl)-(2,4,5-trimethyl-phenyl)-methyl]-(3-imidazol-1-yl-propyl)-amine] | 9.4
3 | COC(=O)Cn1nnnc1C1(NCCCn2ccnc2)CCC1 [compound 49, {5-[1-(3-Imidazol-1-yl-propylamino)-cyclobutyl]-tetrazol-1-yl}-acetic methyl ester] | 0.4
4 | COC(=O)Cn1nnnc1C(NCCCn1ccnc1)c1cc(C)ccc1O (stereo not drawn) [compound 51, {5-[(2-Hydroxy-5-methyl-phenyl)-(3-imidazol-1-yl-propylamino)-methyl]-tetrazol-1-yl}-acetic methyl ester] | 2.2
5 | COC(=O)Cn1nnnc1C(NCCCn1ccnc1)c1ccc2[nH]ccc2c1 (stereo not drawn) [compound 54, {5-[(3-Imidazol-1-yl-propylamino)-(1H-indol-5-yl)-methyl]-tetrazol-1-yl}-acetic methyl ester] | 5.8
6 | COC(=O)Cn1nnnc1C(NCCCn1ccnc1)c1ccc2ccccc2n1 (stereo not drawn) [compound 55, {5-[(3-Imidazol-1-yl-propylamino)-quinolin-2-yl-methyl]-tetrazol-1-yl}-acetic methyl ester] | 2.2
7 | COC(=O)Cn1nnnc1C(NCCCn1ccnc1)c1ccc(OC)c(O)c1 (stereo not drawn) [compound 58, {5-[(3-Hydroxy-4-methoxy-phenyl)-(3-imidazol-1-yl-propylamino)-methyl]-tetrazol-1-yl}-acetic methyl ester] | 4
8 | Cc1ccc(O)c(C(NCCCn2ccnc2)c2nnnn2C(C)(C)C)c1 (stereo not drawn) [compound 59, 2-[(1-tert-Butyl-1H-tetrazol-5-yl)-(3-imidazol-1-yl-propylamino)-methyl]-4-methyl-phenol] | 1.3
9 | CC(C)(C)n1nnnc1C(NCCCn1ccnc1)c1ccc2cccc(O)c2n1 (stereo not drawn) [compound 60, 2-[(1-tert-Butyl-1H-tetrazol-5-yl)-(3-imidazol-1-yl-propylamino)-methyl]-quinolin-8-ol] | 0.4
10 | COc1ncc(C(NCCCn2ccnc2)c2nnnn2C(C)(C)C)c(OC)n1 (stereo not drawn) [compound 62, [(1-tert-Butyl-1H-tetrazol-5-yl)-(2,4-dimethoxy-pyrimidin-5-yl)-methyl]-(3-imidazol-1-yl-propyl)-amine] | 8.5
11 | CC(C)(C)Cn1nnnc1C(NCCCn1ccnc1)[C@@H]1CCC=CO1 (stereo partly drawn) [compound 67] | 6.7
12 | COc1ccc(C(Nc2ccc3[nH]cnc3c2)c2nnnn2C2CCCCC2)cc1 (stereo not drawn) [compound 72, (1H-Benzoimidazol-5-yl)-[(1-cyclohexyl-1H-tetrazol-5-yl)-(4-methoxy-phenyl)-methyl]-amine] | 2.2
13 | c1ccc(CC(Nc2ccc3[nH]cnc3c2)c2nnnn2Cc2cccnc2)cc1 (stereo not drawn) [compound 73, (1H-Benzoimidazol-5-yl)-[2-phenyl-1-(1-pyridin-3-ylmethyl-1H-tetrazol-5-yl)-ethyl]-amine] | 5.8
14 | CCCOc1cccc(C(Nc2ccc3[nH]cnc3c2)c2nnnn2Cc2cccnc2)c1 (stereo not drawn) [compound 74, (1H-Benzoimidazol-5-yl)-[(3-propoxy-phenyl)-(1-pyridin-3-ylmethyl-1H-tetrazol-5-yl)-methyl]-amine] | 2.2
15 | COc1ccc(C(Nc2ccc3[nH]cnc3c2)c2nnnn2Cc2ccc(Cl)cc2)c(C)c1 (stereo not drawn) [compound 75, (1H-Benzoimidazol-5-yl)-[[1-(4-chloro-benzyl)-1H-tetrazol-5-yl]-(4-methoxy-2-methyl-phenyl)-methyl]-amine] | 2.2
16 | c1ccc(-c2ccc(C(Nc3ccc4[nH]cnc4c3)c3nnnn3CC3CCCO3)cc2)nc1 (stereo not drawn) [compound 76, (1H-Benzoimidazol-5-yl)-{(4-pyridin-2-yl-phenyl)-[1-(tetrahydro-furan-2-ylmethyl)-1H-tetrazol-5-yl]-methyl}-amine] | 3.1
17 | COc1ccc(C(Nc2ccc3[nH]cnc3c2)c2nnnn2Cc2ccccc2Cl)c(C)c1 (stereo not drawn) [compound 77, (1H-Benzoimidazol-5-yl)-[[1-(2-chloro-benzyl)-1H-tetrazol-5-yl]-(4-methoxy-2-methyl-phenyl)-methyl]-amine] | 1.3
18 | c1ccc2oc(C(Nc3ccc4[nH]cnc4c3)c3nnnn3C3CCCCC3)cc2c1 (stereo not drawn) [compound 79, [Benzofuran-2-yl-(1-cyclohexyl-1H-tetrazol-5-yl)-methyl]-(1H-benzoimidazol-5-yl)-amine] | 3.1

Results, then the molecule that gave them:

Row | IC50 [µM] | SMILES
19 | 4 | COC(=O)Cn1nnnc1C(NCCCn1ccnc1)c1ccc(Cl)c(Cl)c1 (stereo not drawn) [compound 50, {5-[(3,4-Dichloro-phenyl)-(3-imidazol-1-yl-propylamino)-methyl]-tetrazol-1-yl}-acetic methyl ester]
20 | 4.9 | COC(=O)Cn1nnnc1C(NCCCn1ccnc1)c1ccc2cccc(O)c2n1 (stereo not drawn) [compound 52]
21 | 4 | COC(=O)Cn1nnnc1C(NCCCn1ccnc1)c1ccc(F)c(C#N)c1 (stereo not drawn) [compound 53, {5-[(3-Cyano-4-fluoro-phenyl)-(3-imidazol-1-yl-propylamino)-methyl]-tetrazol-1-yl}-acetic methyl ester]
22 | 4.9 | COC(=O)Cn1nnnc1C(NCCCn1ccnc1)[C@@H]1CCC=CO1 (stereo partly drawn) [compound 56, {5-[(S)-3,4-Dihydro-2H-pyran-2-yl-(3-imidazol-1-yl-propylamino)-methyl]-tetrazol-1-yl}-acetic methyl ester]
23 | 0.4 | COC(=O)Cn1nnnc1C(NCCCn1ccnc1)C1CC1 (stereo not drawn) [compound 57, {5-[Cyclopropyl-(3-imidazol-1-yl-propylamino)-methyl]-tetrazol-1-yl}-acetic methyl ester]
24 | 4.9 | CC(C)(C)Cn1nnnc1C(NCCCn1ccnc1)c1ccc2[nH]ccc2c1 (stereo not drawn) [compound 65, [[1-(2,2-Dimethyl-propyl)-1H-tetrazol-5-yl]-(1H-indol-5-yl)-methyl]-(3-imidazol-1-yl-propyl)-amine]
25 | 3.1 | CC(C)(C)Cn1nnnc1C(NCCCn1ccnc1)c1ccc2ccccc2n1 (stereo not drawn) [compound 66, {[1-(2,2-Dimethyl-propyl)-1H-tetrazol-5-yl]-quinolin-2-yl-methyl}-(3-imidazol-1-yl-propyl)-amine]
26 | 4.9 | c1cn(CCCNC(c2ccc3[nH]ccc3c2)c2nnnn2C2CC2)cn1 (stereo not drawn) [compound 69, [(1-Cyclopropyl-1H-tetrazol-5-yl)-(1H-indol-5-yl)-methyl]-(3-imidazol-1-yl-propyl)-amine]
27 | 5.8 | c1ccc2nc(C(NCCCn3ccnc3)c3nnnn3C3CC3)ccc2c1 (stereo not drawn) [compound 70, [(1-Cyclopropyl-1H-tetrazol-5-yl)-quinolin-2-yl-methyl]-(3-imidazol-1-yl-propyl)-amine]
28 | 9.4 | C1=CO[C@H](C(NCCCn2ccnc2)c2nnnn2C2CC2)CC1 (stereo partly drawn) [compound 71, [(S)-(1-Cyclopropyl-1H-tetrazol-5-yl)-3,4-dihydro-2H-pyran-2-yl-methyl]-(3-imidazol-1-yl-propyl)-amine]
29 | 1.3 | c1ccc2c(C(Nc3ccc4[nH]cnc4c3)c3nnnn3CC3CCCO3)csc2c1 (stereo not drawn) [compound 78]
30 | 6.7 | Cc1ccc2c(C(Nc3ccc4[nH]cnc4c3)c3nnnn3CC3CCCO3)c[nH]c2c1 (stereo not drawn) [compound 80, (1H-Benzoimidazol-5-yl)-{(6-methyl-1H-indol-3-yl)-[1-(tetrahydro-furan-2-ylmethyl)-1H-tetrazol-5-yl]-methyl}-amine]

— patent US7741354B2, “Inhibitors of glutaminyl cyclase” (Probiodrug AG, priority 2006, dated 2010)
